Data on 39 molecules can be found in ChEMBL document CHEMBL1201862, “PubChem BioAssay data set” (2004).

Assay [1] in a line: cells. The format is functional, cell-based.
Assay [2] can be described thus: cells. The format is functional, cell-based. This is another data set of the same source.
Assay [3] concerns the target T1, Polyadenylate-binding protein 1 (Homo sapiens, UniProt P11940). Description: MLLE binding blockers, Cy5 peptide tracer – biochemical, fluorescence polarization, Cy5-PAM2 peptide, secondary, miRNA deadenylation inhibitor project, dose response (AID 602260). The format is functional. Particulars: read-out: IC50_Mean. A general note: Polarisation of emitted light reports the rotation of a fluorescent probe.

Assay [4] has as its target T1, Polyadenylate-binding protein 1. Description: MLLE domain peptide-binding blockers, IC50 – biochemical, fluorescence polarization, FITC-PAM2 peptide, dose response (AID 602259). The class given is functional. To be noted: read-out: IC50_Mean.
Assay [5] deals with Luciferin 4-monooxygenase (Photinus pyralis, UniProt P08659). Description: inhibition of purified Photinus pyralis luciferase – biochemical, luminescence, dose response (AID 1891).
Sequence of Luciferin 4-monooxygenase (P08659 whole entry): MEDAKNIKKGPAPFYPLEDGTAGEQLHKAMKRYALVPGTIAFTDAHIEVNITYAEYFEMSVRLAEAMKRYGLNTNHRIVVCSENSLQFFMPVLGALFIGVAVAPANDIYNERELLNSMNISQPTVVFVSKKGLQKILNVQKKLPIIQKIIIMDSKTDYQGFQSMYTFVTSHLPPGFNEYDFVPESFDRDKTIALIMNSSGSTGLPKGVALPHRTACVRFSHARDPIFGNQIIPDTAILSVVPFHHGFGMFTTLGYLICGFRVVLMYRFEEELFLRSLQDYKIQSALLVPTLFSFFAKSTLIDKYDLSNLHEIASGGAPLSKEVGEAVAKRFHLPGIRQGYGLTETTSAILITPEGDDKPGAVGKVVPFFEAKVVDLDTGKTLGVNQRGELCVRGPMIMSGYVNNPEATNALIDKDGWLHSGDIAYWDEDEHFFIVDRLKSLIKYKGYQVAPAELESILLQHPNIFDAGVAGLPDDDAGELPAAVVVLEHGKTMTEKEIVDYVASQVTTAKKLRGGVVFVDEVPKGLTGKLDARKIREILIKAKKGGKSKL
The nature of assay [6]: Luminescence Cell-Based Dose Confirmation HTS to Identify Inhibitors of Platelet Dense Granule Release. [Related pubchem assays: 1663 (Primary HTS), 1678 (Summary of Project)]. The class given is functional.
In a further assay the test system is INS1. The experiment in a line: INS-1E survival protection against cytokine death – cell-based, luminescence, retest, dose response (AID 449756).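 Also: cell death triggered by IL-1 beta plus TNF-alpha plus IFN-gamma mixture; protective hits raise ATP signal compared with cytokine alone wells.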 The class given is functional. Particulars: Rattus norvegicus.
The target of assay [7] is T2, RNA-binding protein pos-1 (Caenorhabditis elegans, UniProt G5EF15).
T2 sequence (G5EF15 whole entry): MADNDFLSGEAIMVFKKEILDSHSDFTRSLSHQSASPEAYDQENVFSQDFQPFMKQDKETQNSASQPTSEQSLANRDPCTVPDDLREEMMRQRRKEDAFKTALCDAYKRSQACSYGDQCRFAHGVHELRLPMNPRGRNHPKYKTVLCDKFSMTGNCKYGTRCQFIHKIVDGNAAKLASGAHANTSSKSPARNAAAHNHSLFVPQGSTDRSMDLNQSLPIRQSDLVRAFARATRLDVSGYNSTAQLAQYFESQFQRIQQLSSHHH
The experiment in a line: disruptors of C. elegans POS-1 RNA interaction – biochemical, fluorescence polarization, dose response (AID 1964).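 Also: purified POS-1 fused to maltose binding protein made in E. coli; potency of compounds blocking POS-1 binding to fluorescent RNA.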

Assay [8] addresses T3, Zinc finger protein mex-5 (Caenorhabditis elegans, UniProt Q9XUB2).
T3 sequence (Q9XUB2 whole entry): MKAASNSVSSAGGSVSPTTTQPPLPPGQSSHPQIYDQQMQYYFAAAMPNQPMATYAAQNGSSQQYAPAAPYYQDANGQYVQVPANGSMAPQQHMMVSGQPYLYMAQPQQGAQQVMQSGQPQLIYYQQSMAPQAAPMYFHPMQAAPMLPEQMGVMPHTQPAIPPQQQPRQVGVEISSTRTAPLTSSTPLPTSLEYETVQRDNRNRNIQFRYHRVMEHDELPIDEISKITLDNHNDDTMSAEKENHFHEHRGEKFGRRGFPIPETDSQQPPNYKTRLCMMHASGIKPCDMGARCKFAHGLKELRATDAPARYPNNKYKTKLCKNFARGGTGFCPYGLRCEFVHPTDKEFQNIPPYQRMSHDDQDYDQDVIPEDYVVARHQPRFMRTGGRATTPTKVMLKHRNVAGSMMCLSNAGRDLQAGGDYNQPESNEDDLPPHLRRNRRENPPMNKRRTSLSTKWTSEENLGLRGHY
Description: potency of MEX-5 RNA-binding blockers – biochemical, C. elegans, fluorescence polarization, dose response (AID 1960).

Assay [9] concerns the target T4, Heat shock factor protein 1 (Mus musculus, UniProt P38532).
T4 sequence (P38532 whole entry): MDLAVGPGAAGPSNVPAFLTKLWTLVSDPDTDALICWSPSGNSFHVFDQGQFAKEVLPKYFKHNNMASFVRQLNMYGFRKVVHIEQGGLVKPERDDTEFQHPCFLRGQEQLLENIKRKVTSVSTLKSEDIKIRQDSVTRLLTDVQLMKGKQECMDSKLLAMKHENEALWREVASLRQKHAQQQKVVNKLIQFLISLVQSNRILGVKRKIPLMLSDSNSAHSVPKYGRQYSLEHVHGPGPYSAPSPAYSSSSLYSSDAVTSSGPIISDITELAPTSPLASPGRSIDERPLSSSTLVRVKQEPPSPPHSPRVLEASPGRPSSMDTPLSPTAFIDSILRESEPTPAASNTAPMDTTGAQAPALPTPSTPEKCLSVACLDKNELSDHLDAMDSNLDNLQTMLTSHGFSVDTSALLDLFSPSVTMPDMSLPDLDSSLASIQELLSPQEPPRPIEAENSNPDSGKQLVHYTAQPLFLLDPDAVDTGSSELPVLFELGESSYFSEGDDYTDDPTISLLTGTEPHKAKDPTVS
Description: enhancement of HSF1-driven luciferase signal – cell-based, NIH3T3, luminescence, dose retest, confirmation (AID 435004).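 Also: stress induced by proteasome inhibitor MG132 added 30 min after compound; luciferase reporter driven by HSF1 response element in NIH3T3 cells; actives raise luminescence as potentiators of the MG132 stress response.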 The format is functional.

The target of assay [10] is T5, Ubiquitin-conjugating enzyme E2 N (Homo sapiens, UniProt P61088).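 Also: Dose-response confirmation in a TR-FRET assay detecting UBC13-driven polyubiquitin chain formation, inhibition measured.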
T5 sequence (P61088 whole entry): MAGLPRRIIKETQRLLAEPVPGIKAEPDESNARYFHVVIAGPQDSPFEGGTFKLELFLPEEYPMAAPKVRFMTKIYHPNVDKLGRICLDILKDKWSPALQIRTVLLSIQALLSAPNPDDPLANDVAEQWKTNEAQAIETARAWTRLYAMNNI
The class given is functional.

Assay [11] can be described thus: Trypanosoma cruzi growth suppression in host cells – NIH3T3 host cells, beta-gal luminescence, confirmation (AID 2044).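 Also: intracellular parasites grown in NIH/3T3 mouse fibroblasts as host cells; luminescent beta-galactosidase reporter signal from transgenic T. cruzi replicating inside host cells; inhibitors lower the luminescence signal.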 The format is functional, cell-based.
A short description of assay [12]: NIH3T3 cell viability loss – ATP luminescence, mouse fibroblasts, counter-screen, dose response (AID 2010).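 Also: cells exposed to compound for about 90 hours before reading.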 The format is functional, cell-based. On the technique in general: A counterscreen serves to expose hits that act by an unwanted route or on another target.
Assay [13] can be described thus: Luminescence Cell-Based Dose Retest to Confirm Inhibitors of Cancer Stem Cells. [Related pubchem assays (depositor defined):AID2717, AID2721]. The class given is functional. Particulars: Homo sapiens.
For assay [14], the target named is T4, Heat shock factor protein 1. The experiment in a line: decrease of HSF1-responsive luciferase luminescence – cell-based, NIH3T3, dose retest, confirmation (AID 2382).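 Also: NIH3T3 fibroblasts with HSF1-driven luciferase reporter stressed by proteasome inhibitor MG132; luminescence from HSF1-driven luciferase expression after 8 hours of MG132 stress.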 The format is functional.

Active and inactive are the calls of the source. Rule as the data show it, for most assays here: actives have a measured EC50 and inactives only a lower limit. Some results are limits rather than exact numbers.

T1 sequence (P11940 whole entry): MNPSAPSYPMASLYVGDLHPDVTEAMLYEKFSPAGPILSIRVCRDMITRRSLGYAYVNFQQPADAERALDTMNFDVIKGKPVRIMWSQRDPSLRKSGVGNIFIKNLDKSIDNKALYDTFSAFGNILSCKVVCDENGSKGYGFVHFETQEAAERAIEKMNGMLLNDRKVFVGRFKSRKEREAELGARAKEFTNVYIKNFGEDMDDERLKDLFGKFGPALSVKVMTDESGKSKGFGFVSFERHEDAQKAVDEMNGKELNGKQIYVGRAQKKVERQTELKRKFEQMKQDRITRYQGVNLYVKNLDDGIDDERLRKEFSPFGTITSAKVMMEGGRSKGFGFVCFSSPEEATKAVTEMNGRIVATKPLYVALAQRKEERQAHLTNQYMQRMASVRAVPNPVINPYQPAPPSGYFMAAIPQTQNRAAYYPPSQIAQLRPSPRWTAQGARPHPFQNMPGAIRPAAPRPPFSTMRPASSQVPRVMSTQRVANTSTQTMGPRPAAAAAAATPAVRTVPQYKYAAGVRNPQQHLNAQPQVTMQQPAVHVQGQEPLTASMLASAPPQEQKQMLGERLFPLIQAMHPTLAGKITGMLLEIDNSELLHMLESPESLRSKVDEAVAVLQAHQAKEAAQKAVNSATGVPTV

What is called EC50 is the concentration at which the effect is half-maximal. Turning to `COC(=O)c1cn(C)c2ccc(S(=O)(=O)N3CCCCC3)cc2c1=O`, the EC50 in “cells [1]” and in the assay “cells [2]” was > 350 µM (not active) throughout.

For `CCOc1ccc(N2C(=O)CC(Sc3ccccc3C(=O)O)C2=O)c([N+](=O)[O-])c1` (stereo unspecified), the IC50 in assay [3] and in assay [4] was > 66 µM (inactive) throughout.

Regarding `COc1ccccc1NS(=O)(=O)c1ccc(O)c(NC(S)=NCC2CCCO2)c1` (stereo unspecified), the IC50 in [3] and in assay [4] was > 66 µM (inactive) in each case.

Consider `CCOc1ccc(NC(O)=C2C(=O)NC(=O)NC2=O)cc1`, for which the EC50 is 1.42 µM (active) in assay [5] and 9.93 µM (active) in assay [6].

The term AC50 denotes the midpoint of the concentration-response curve, whichever way the signal moves. In the case of `CC(C)(C)n1nc2c3c(ccc2c1O)C(=O)c1ccccc1C3=O`, the AC50 in the assay with INS1 is 2.98 µM (active).

Take `Cc1nnc(N2C(=O)C(O)=C(C(=O)c3ccco3)C2c2cccc3ccccc23)s1` (stereo unspecified): the concentration giving a half-maximal response (EC50) in [7] and in assay [8] was > 300 µM (not active) each time.

Consider `O=C(NCc1nc2ccccc2[nH]1)c1c(F)c(F)c(F)c(F)c1F`, for which the 50% effective concentration (EC50) in “cells [1]” and in the assay “cells [2]” was > 350 µM (not active) throughout.

`COc1ccc(Oc2nc(-c3ccccc3)ncc2S(=O)(=O)c2ccccc2)cc1`: the EC50 in assay [5] and in assay [6] was > 112 µM (not active) in each case.

`O=C(OCCCCN1C(=O)c2ccccc2C1=O)c1ccc(S(=O)(=O)N2CCCC2)cc1`: the half-maximal effective concentration (EC50) in assay [5] and in assay [6] was > 112 µM (not active) throughout.

Consider `Cc1cc(C)c(O)c(NC(=S)NC(=O)Cc2ccccc2)c1`, for which the IC50 in [3] and in [4] was > 66 µM (inactive) in each case.

Regarding `C=CCSc1nnc(N2C(=O)C(O)=C(C(=O)c3ccco3)C2c2ccc(F)cc2)s1` (stereo unspecified), the EC50 in assay [9] was > 260 µM (inactive); in assay [7], 114 µM (active); in [8], 87.6 µM (active).

For the molecule `COc1ccc(CNC(=O)c2cnc3cc(C)ccn3c2=O)cc1`, the concentration giving a half-maximal response (EC50) in [7] and in [8] was > 300 µM (not active) throughout.

For the molecule `Cc1c(N=C(S)NNC(=O)CCC(=O)O)c(=O)n(-c2ccccc2)n1C`, the EC50 in assay [5] and in assay [6] was > 112 µM (not active) throughout.

In the case of `O=C(c1ccco1)N1CCN(Cc2nc(-c3cccs3)no2)CC1`, the EC50 in assay [5] and in [6] was > 112 µM (not active) throughout.

In the case of `O=C(Nc1cc(=O)[nH]c2ncnn12)c1ccc(Cl)cc1Cl`, the EC50 is 43.5 µM (inconclusive) in [7] and 20.5 µM (inconclusive) in [8].

With `Cc1ccc(CN2[C@@H](CC(C)C)COCCS2(=O)=O)cc1`, the results for the EC50 in the assay “cells [1]” and in the assay “cells [2]” were > 350 µM (not active) and 72.7 µM (active), respectively.

In the case of `COc1ccc(N2C(=O)/C(=C/c3ccc(N(C)C)o3)C(=O)NC2=S)cc1`, the EC50 in [7] was > 300 µM (not active); in assay [8], > 150 µM (inconclusive).

Turning to `Cc1cccn2c(Nc3ccccc3)c(-c3ccccn3)nc12`, the half-maximal activity concentration (AC50) in the assay on INS1 is 5.84 µM (active).

Consider `CCCCN(C)C(=O)c1cccc(OC2CCN(CC(C)(C)C)CC2)c1`, for which the EC50 in [7] was > 300 µM (not active); in [8] it was > 300 µM (inconclusive).

Turning to `CCOc1cc(C2C3=C(CCCC3=O)N(CC(=O)O)C3=C2C(=O)CCC3)ccc1OC`, the IC50 in [3] and in assay [4] was > 66 µM (inactive) throughout.

In the case of `O=C(CCCc1ccccc1)Nc1nnc(C(F)(F)F)s1`, the EC50 in assay [5] and in [6] was > 112 µM (not active) throughout.

As for `CCCOC(=O)Nc1ccc(C(N)=O)cc1`, the EC50 in assay [5] and in assay [6] was > 112 µM (not active) throughout.

For `COc1ccccc1C(=O)Oc1ccccc1C(=O)Nc1ccccc1`, the values for the EC50 in “cells [1]” and in “cells [2]” were > 350 µM (not active) and 16.1 µM (active), respectively.

With `COc1ccc(N2C(=O)NC(=O)/C(=C/c3ccc4c(c3)Cc3ccccc3-4)C2=O)cc1`, the EC50 in assay [7] and in assay [8] was > 300 µM (not active) throughout.

Turning to `Fc1ccc(F)c(C2=NN=C(NCC3CCCO3)SC2)c1` (stereo unspecified), the IC50 in [3] and in assay [4] was > 66 µM (inactive) each time.

As to `Oc1[nH]c2ccc(Br)cc2c1N=NC(S)=NCC1CCCO1` (stereo unspecified), in [10], the IC50 was > 20 µM (inactive). The EC50 in assay [11] was 2.17 µM (active); in assay [12], > 60 µM (not active).

Turning to `Cc1cc(/C=C2\C(=O)NC(=O)N(C)C2=O)c(C)n1-c1ccc2c(c1)OCO2`, the EC50 in [7] and in [8] was > 300 µM (not active) each time.

As to `CCCCc1nc2sc3c(O)ncnc3c2c2c1CCCC2`, the EC50 in assay [5] and in assay [6] was > 112 µM (not active) throughout.

For `CCOc1c(C=C(C#N)C#N)c2ccccc2n1CC`, the concentration for a half-maximal effect (EC50) in [7] and in assay [8] was > 300 µM (not active) each time.

With `COc1cccc(N(C(=O)c2snc(C(N)=O)c2N)C(C(=O)NCC2CCCO2)c2c[nH]c3ccccc23)c1` (stereo unspecified), in [10], the IC50 is > 20 µM (inactive).

In the case of `COc1ccc(COCC(O)CN2CCC(CN3C(=O)c4cccc5cccc(c45)C3=O)CC2)cc1OC` (stereo unspecified), the IC50 in assay [10] is > 20 µM (inactive).

`O=C(Nc1ccc(-c2csc(Nc3cccc(C(F)(F)F)c3)n2)cc1)c1cc([N+](=O)[O-])cc(C(F)(F)F)c1`: the results for the AC50 (in assay [13]; with INS1) were 1.4 µM (active) and 7.89 µM (active), respectively.

Take `N=C(N)NC(=N)Nc1ccc(SC(F)(F)F)cc1`: the AC50 in the assay on INS1 is 1.72 µM (active).

As to `O=C(Nc1cc[n+](-c2nc3ccccc3nc2[N-]S(=O)(=O)c2ccccc2)cc1)c1ccccc1Cl`, the 50% effective concentration (EC50) in assay [7] was > 300 µM (not active); in [8], 32.7 µM (active).

Turning to `CC(=O)c1cccc(NC(=O)CSC(=O)c2ccccc2)c1`, the EC50 in “cells [1]” and in the assay “cells [2]” was > 350 µM (not active) in each case.

With `Cn1c(=O)c2c(ncn2CC(=O)Nc2cccc(S(=O)(=O)Nc3ccccc3F)c2)n(C)c1=O`, the IC50 in assay [3] and in assay [4] was > 66 µM (inactive) throughout. For the same molecule, the 50% effective concentration (EC50) in assay [14] is given as > 195 µM (not active).

Turning to `O=C(Nc1ccccc1)NC1(C(=O)NCc2ccc3c(c2)OCO3)CCCCC1`, the 50% effective concentration (EC50) in assay [7] and in assay [8] was > 300 µM (not active) throughout.

Regarding `N=C(S)C(c1ccccc1)c1ncc(C(F)(F)F)cc1Cl` (stereo unspecified), the IC50 in assay [3] and in assay [4] was > 66 µM (inactive) in each case.

Take `O=C(CSCc1ccco1)c1cccs1`: the EC50 in assay [5] and in [6] was > 112 µM (not active) throughout.
